# Data: ChEMBL document CHEMBL2406926, “C-Glucopyranosyl-1,2,4-triazoles As New Potent Inhibitors of Glycogen Phosphorylase” (ACS Med Chem Lett, 2013)
# pKi: −log10 of the molar value.
# Target: T1, Glycogen phosphorylase, muscle form (Oryctolagus cuniculus, UniProt P00489)
# T1 sequence (P00489 whole entry): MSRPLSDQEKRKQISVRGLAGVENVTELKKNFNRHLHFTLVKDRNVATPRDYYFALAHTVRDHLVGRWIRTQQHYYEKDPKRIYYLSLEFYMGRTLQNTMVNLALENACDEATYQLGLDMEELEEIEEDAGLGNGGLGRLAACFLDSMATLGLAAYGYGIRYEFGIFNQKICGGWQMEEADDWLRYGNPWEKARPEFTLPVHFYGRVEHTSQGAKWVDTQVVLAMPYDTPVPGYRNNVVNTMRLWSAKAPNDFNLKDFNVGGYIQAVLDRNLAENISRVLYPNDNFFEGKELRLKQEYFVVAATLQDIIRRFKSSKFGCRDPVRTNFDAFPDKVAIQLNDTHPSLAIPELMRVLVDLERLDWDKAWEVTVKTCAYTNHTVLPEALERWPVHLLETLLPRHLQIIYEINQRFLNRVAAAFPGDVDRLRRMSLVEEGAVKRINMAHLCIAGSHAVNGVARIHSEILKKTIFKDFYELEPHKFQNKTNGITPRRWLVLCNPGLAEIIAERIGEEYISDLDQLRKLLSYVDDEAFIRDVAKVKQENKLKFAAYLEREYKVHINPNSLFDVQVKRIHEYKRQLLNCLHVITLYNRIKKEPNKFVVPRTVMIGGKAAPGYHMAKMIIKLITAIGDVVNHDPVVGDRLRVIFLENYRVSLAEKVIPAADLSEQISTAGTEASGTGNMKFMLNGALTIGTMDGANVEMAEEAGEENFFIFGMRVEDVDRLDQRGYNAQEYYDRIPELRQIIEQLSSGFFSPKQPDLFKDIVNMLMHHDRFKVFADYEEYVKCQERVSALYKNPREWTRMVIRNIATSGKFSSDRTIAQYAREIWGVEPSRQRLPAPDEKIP
# Assay: Competitive inhibition of rabbit muscle glycogen phosphorylase b
# Design: species or system Muscle tissue
row,Structure (SMILES),pKi
1,OC[C@H]1O[C@@H](c2nc(-c3ccc4ccccc4c3)n[nH]2)[C@H](O)[C@@H](O)[C@@H]1O,6.39
2,OC[C@H]1O[C@@H](c2nnc(-c3ccccc3)[nH]2)[C@H](O)[C@@H](O)[C@@H]1O,5.15
3,OCc1n[nH]c([C@@H]2O[C@H](CO)[C@@H](O)[C@H](O)[C@H]2O)n1,3.98
